Here are results for two molecules from US8883759B2, “Anti-tumor effect potentiator” (Taiho Pharmaceutical Co., Ltd., priority 2009, dated 2014).

pIC50: −log10 of the molar value.

The target in one test is human dUTPase (Homo sapiens (Human), UniProt P33316). Briefly: Human dUTPase inhibitory effect ([5-3H]dUMP production from [5-3H]dUTP). The format is biochemical. As to the method:
The inhibitory activity of these compounds of the present invention against human dUTPase was determined by measuring the production of [5-^3H]deoxyuridine monophosphate (hereinafter, referred to as [5-^3H]dUMP) from [5-^3H]deoxyuridine triphosphate (hereinafter, referred to as [5-^3H]dUTP) according to a method shown below.
Specifically, 0.2 mL in total of a solution containing 0.02 mL of 1 μM dUTP (including 588 Bq/mL [5-^3H]dUTP), 0.05 mL of a 0.2 M Tris buffer solution (pH 7.4), 0.05 mL of 16 mM magnesium chloride, 0.02 mL of 20 mM 2-mercaptoethanol, 0.02 mL of a 1% aqueous solution of fetal bovine serum-derived albumin, 0.02 mL of varying concentrations of test compound solutions or pure water as a control, and 0.02 mL of a solution of human dUTPase, which is expressed in E. coli and then purified, was incubated at 37° C. for 15 minutes. After the incubation, the solution was heated at 100° C. for 1 minute to terminate the reaction, followed by centrifugation at 15000 rpm for 2 minutes. An aliquot (150 μL) of the supernatant obtained by centrifugation was analyzed using an Atlantis dC18 column (manufactured by Waters Corp., 4.6×250 mm) and a high-performance liquid chromatograph (manufactured by Shimadzu Corp., Prominence). […]
The inhibitory activity of the test compound was determined according to the formula shown below. […]

The subject of test [1] is human breast cancer cell line MX-1. Briefly: Enhancing activity for anti-tumor effect of TS-1 in nude mice with transplanted MX-1 (Test Example 2). The format is in vivo, BALB/cA Jcl-nu mice. The note with it: 200 mg/kg/day test drug + TS-1 8.3 mg/kg/day, oral, 14 days; MX-1 in nude mice; T/C on day 15 (FIG. 1). As to the method:
A human breast cancer cell line MX-1 was transplanted into the right-sided chest of 5- to 6-week-old male BALB/cA Jcl-nu mice. After transplantation, the major axis (mm) and minor axis (mm) of the tumor were measured, and the tumor volume (TV) was estimated by calculation. Using MiSTAT group separation program, the mice were then divided into individual groups so that the mean TV of each group is to be equal. The date at which mice were divided into the groups (n=5) was defined as day 0.
A test solution for tegafur/gimeracil/oteracil potassium (TS-1, manufactured by Taiho Pharmaceutical Co., Ltd.) single administration group, containing 0.5% hydroxypropylmethyl cellulose, 2.5% dimethylacetamide, 2.5% Tween 80, and 10% Cremophor as final concentrations, was prepared, provided at 8.3 mg/kg/day. The dose of TS-1 was represented by the amount of tegafur (FT). […]
TV on day 15 was measured, and relative tumor volume (RTV) was calculated. Then, T/C (%) was calculated according to a formula described below, and an anti-tumor effect was evaluated. […]

Chain of human dUTPase (P33316 94-252): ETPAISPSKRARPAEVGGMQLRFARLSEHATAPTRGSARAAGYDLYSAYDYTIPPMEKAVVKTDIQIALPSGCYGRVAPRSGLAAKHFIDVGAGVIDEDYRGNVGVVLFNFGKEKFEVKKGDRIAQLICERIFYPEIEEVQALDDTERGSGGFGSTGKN

At human dUTPase (concentration inhibiting 50% of [5-3H]dUMP production by human dUTPase, 37° C., 15 minutes), `CC[C@@H](NS(=O)(=O)CCCn1ccc(=O)[nH]c1=O)c1cccc(OCC2CC2)c1` [Compound 19, (R)—N-(1-(3-(cyclopropylmethoxy)phenyl)propyl)-3-(2,4-dioxo-3,4-dihydropyrimidin-1(2H)-yl)propane-1-sulfonamide] had a negative-log IC50 (pIC50) of 6.21.

In the case of `O=c1ccn(COCCCC2(NS(=O)(=O)c3cccc(OCC4CC4)c3)CC2)c(=O)[nH]1` [Comparative Compound 1, 3-(cyclopropylmethoxy)-N-(1-(3-((2,4-dioxo-3,4-dihydropyrimidin-1(2H)-yl)methoxy)propyl)cyclopropyl)benzenesulfonamide], the “dUTPase inhibitory activity (in words)” value on human dUTPase (human dUTPase) was “strong”. Besides, the “enhancing activity for anti-tumor effect of TS-1” value in test [1] is “not observed”.
